Tests used:
leukemia = experiment: Phase I trial, escalation and evaluation period; format: in vivo, human; conditions: up to 0.05 mg/kg/day i.v. six consecutive days, escalation period
Procedure: Fourteen patients were treated. The patient selection met the following criteria: (a) all types of leukemia, (b) all patients previously treated without success, (e) no X-ray or chemotherapy was administered four weeks prior to therapy, (d) at least eight weeks follow-up. In the escalation period 0.01 mg/kg/day i.v. was given five consecutive days as initial dose.
DOSAGE OF F-LEUROSINE IN PHASE I TRIAL
In addition, eight patients were added to the group treated on the basis of this schedule.

Yoshida ascites sarcoma = experiment: antitumor effect on Yoshida ascites sarcoma; format: in vivo
Text: (§1) The treatment extends the life span of animals suffering from L-1210 lymphoid leukemia, s37 ascites sarcoma or Yoshida ascites sarcoma by about 150 to 250 percent.
(§2) EFFECT OF F-LEUROSINE ON ASCITIC TUMORS

[1] = tolerability and therapeutical range in animal tests; format: in vivo
Procedure: A dose of 0.3 to 5.0 mg./kg. of body weight can also be used in human therapy, although the dosage can be as low as 0.01 mg./kg. daily.

[2] = tested on: granulocytes, lymphocytes, platelets; experiment: haematological parameters; format: in vivo
rhabdomyo-sarcoma = experiment: growth inhibition of induced and transplanted rhabdomyo-sarcoma; format: in vivo
Swiss mice = experiment: acute toxicity in Swiss mice; format: in vivo, mouse
Text: (§3) ACUTE TOXICITY IN SWISS MICE
(§4) Table III lists the comparative toxicological data concerning Vincristine, Vinblastine and F-leurosine. The new analogue is approximately 7 times less toxic than Vincristine and 4 times less toxic than Vinblastine in acute rodent experiments.

[3] = acute toxicity in Swiss mice; format: in vivo, mouse; conditions: mouse, in vivo, Swiss mice
Text: as §3, §4

VX-2 rabbit epitheloma = experiment: growth inhibition of VX-2 rabbit epitheloma; format: in vivo
NK/Ly lymphoma = experiment: antitumor effect on NK/Ly lymphoma; format: in vivo, mice
Text: (§5) This compound provides complete recovery or a 300 percent extension of life span in 50 to 70 percent of the cases, in tests on mice inoculated with Ehrlich ascites carcinoma or NK/Ly lymphoma.
as §2

[4] = tested on: Ehrlich ascites carcinoma; experiment: antitumor effect on Ehrlich ascites carcinoma; format: in vivo, mice
Text: as §5, §2

Harding Passey melanoma = experiment: growth inhibition of Harding Passey melanoma; format: in vivo
leukaemias = experiment: effect of F-leurosine on leukaemias in patients (Table I); format: in vivo, human; conditions: for haematological effect: schedule C
L 1210 leukemia = experiment: effect on L 1210 i.p. leukemia; format: in vivo, BDF1 mice
Text: as §1
L 1210 I.P. LEUKEMIA ON BDF1 MICE

Novikoff = experiment: antitumor effect on Novikoff ascitic tumor; format: in vivo
Text: |EFFECT OF F-LEUROSINE ON ASCITIC TUMORS

[5] = 4 × 0.6 mg/kg i.p. each other day
[6] = 8 × 2.5 mg/kg i.p. 48 hr interval
[7] = 8 × 2.5 mg/kg i.p. 72 hr interval
[8] = 8 × 5.0 mg/kg i.p. 48 hr interval
[9] = 8 × 5.0 mg/kg i.p. 72 hr interval
[10] = 8 × 5.0 mg/kg i.p. 96 hr interval
[11] = 8 × 7.5 mg/kg i.p. 72 hr interval
[12] = 8 × 7.5 mg/kg i.p. 96 hr interval
[13] = 8 × 10.0 mg/kg i.p. 48 hr interval
[14] = 8 × 10.0 mg/kg i.p. 72 hr interval
[15] = 8 × 10.0 mg/kg i.p. 96 hr interval
[16] = 4 × 3.0 mg/kg i.p. each other day

For `CCC12CN3CCc4c([nH]c5ccccc45)[C@@](C(=O)OC)(c4cc5c(cc4OC)N(C=O)[C@H]4[C@@](O)(C(=O)OC)[C@H](OC(C)=O)[C@]6(CC)C=CCN7CC[C@]54[C@@H]76)C[C@@H](C3)C1O2` (stereo partly drawn) [N-formyl-leurosine], the antitumor activity (leukemia) was “striking antitumor activity”, the signs of toxicity (leukemia) was “without signs of toxicity” and the Survival (Yoshida ascites sarcoma; 9 × 0.5 mg/kg i.p. daily) was 143. For the same compound, the Tumor free (Yoshida ascites sarcoma; 9 × 0.5 mg/kg i.p. daily) was 0/6, the Survival (Yoshida ascites sarcoma; 9 × 1.0 mg/kg i.p. daily) was 173 and the Tumor free (Yoshida ascites sarcoma; 9 × 1.0 mg/kg i.p. daily) was 2/6. The Survival (Yoshida ascites sarcoma; 9 × 2.0 mg/kg i.p. daily) was 243, the Tumor free (Yoshida ascites sarcoma; 9 × 2.0 mg/kg i.p. daily) was 4/6 and the “extension of life span” value (Yoshida ascites sarcoma; Yoshida ascites sarcoma, about) was 150-250%. The side-effects ([1]; 0.3 to 5.0 mg./kg. for prolonged periods, animals) was “without causing side-effects characteristic of and unavoidable with the known vinca-alkaloids”, the “therapeutical range compared with vincristine” value ([1]; animal tests) was “somewhat similar to that of vincristine” and the “therapeutical range compared with vinleurosine” value ([1]; animal tests) was “about four times broader than that of vinleurosine”. For the same compound, the “lowering of number of granulocytes” value ([2]; 0.6 mg/kg) was 50%, the number of lymphocytes ([2]; 15 mg/kg) was “decreased only after administration of 15 mg/kg” and the platelet count ([2]; similar dose level) was “No significant changes”. For the same compound, the growth inhibition (rhabdomyo-sarcoma) was “remarkable growth inhibition”, the “times less toxic than Vinblastine” value (Swiss mice; acute rodent experiments) was about 4 times and the “times less toxic than Vincristine” value (Swiss mice; acute rodent experiments) was “approximately 7 times”. For the same compound, the signs of neurotoxicity (Swiss mice; even subluthal doses, experimental animals) was “did not show any signs of neurotoxicity”, the “toxicity relative to vinblastine” value (Swiss mice; i.p., on mice (text b8)) was “about five times less toxic than vinblastine” and the “toxicity relative to vincristine” value (Swiss mice; i.p., on mice (text b8)) was “about ten times less toxic than vincristine”. For the same compound, the LD50 ([3]; ip, 1 x i.p.) was 28.8 mg/kg, the LD50 ([3]; iv, 1 x i.v.) was 32.5 mg/kg and the growth inhibition (VX-2 rabbit epitheloma) was “remarkable growth inhibition”. For the same compound, the “extension of life span” value (NK/Ly lymphoma) was 300%, the Survival (NK/Ly lymphoma; 8 × 0.5 mg/kg i.p. daily) was 250 and the Tumor free (NK/Ly lymphoma; 8 × 0.5 mg/kg i.p. daily) was 2/10. The “extension of life span” value [4] was 300%, the Survival [4, 5] was 288 and the Tumor free [4, 5] was 7/10. The Survival ([4]; 7 × 3.0 mg/kg i.p. daily) was 244, the Tumor free ([4]; 7 × 3.0 mg/kg i.p. daily) was 3/10 and the Survival ([4]; 24 × 0.15 mg/kg i.p. daily) was 118. The Tumor free ([4]; 24 × 0.15 mg/kg i.p. daily) was 3/10, the growth inhibition (Harding Passey melanoma) was “remarkable growth inhibition” and the “clinical improvement parallel with the haematological one” value (leukaemias; ALL and AML patients) was “observed only in the case of the ALL patient”. For the same compound, the “duration of complete haematological remission” value (leukaemias; ALL patient) was 2 months, the outcome after treatment (leukaemias; AML patient) was “died one month after the end of the treatment” and the “time to relapse after finishing treatment” value (leukaemias; AML patient, relapse untreatable because of serious thrombopenia and bleeding) was 14 days. For the same compound, the splenomegaly (leukaemias; CLL, first case) was “splenomegaly diminished”, the “enlargement of pathological lymph nodes” value (leukaemias; CLL, second case (T. B.)) was “became less pronounced” and the “lymph nodes and spleen volume” value (leukaemias; CLL, third case) was “both the lymph nodes and the spleen increased in volume”. For the same compound, the clinical improvement (leukaemias; chronic lymphocytic leukaemia) was “some clinical improvement was achieved in all the 3 CLL patients”, the haematological remission (leukaemias; chronic lymphocytic leukaemia) was “no haematological remission could be induced” and the complete haematological remission (leukaemias; four cases of acute leukaemia, one ALL, one AML) was “Complete haematological remission was achieved in two cases”. For the same compound, the haematological effect (leukaemias; patient seven, AMoL) was “IR>50%”, the haematological effect (leukaemias; patient six, AUL) was “IR>50%” and the “Mean survival” value (L 1210 leukemia; 8 × 1.25 mg/kg i.p. daily) was 27.7 days. For the same compound, the Survival (L 1210 leukemia; 8 × 1.25 mg/kg i.p. daily) was 131, the “Mean survival” value (L 1210 leukemia; [6]) was 22.4 days and the Survival (L 1210 leukemia; [6]) was 137. For the same compound, the “Mean survival” value (L 1210 leukemia; [7]) was 12.0 days, the Survival (L 1210 leukemia; [7]) was 48 and the “Mean survival” value (L 1210 leukemia; 8 × 2.5 mg/kg i.p. daily) was 25.0 days. For the same compound, the Survival (L 1210 leukemia; 8 × 2.5 mg/kg i.p. daily) was 127, the “Mean survival” value (L 1210 leukemia; [8]) was 24.0 days and the Survival (L 1210 leukemia; [8]) was 126. For the same compound, the “Mean survival” value (L 1210 leukemia; [9]) was 22.1 days, the Survival (L 1210 leukemia; [9]) was 123 and the “Mean survival” value (L 1210 leukemia; [10]) was 10.8 days. The Survival (L 1210 leukemia; [10]) was 35, the “Mean survival” value (L 1210 leukemia; 8 × 5.0 mg/kg i.p. daily) was 23.0 days and the Survival (L 1210 leukemia; 8 × 5.0 mg/kg i.p. daily) was 109. For the same compound, the “Mean survival” value (L 1210 leukemia; [11]) was 20.2 days, the Survival (L 1210 leukemia; [11]) was 117 and the “Mean survival” value (L 1210 leukemia; [12]) was 19.2 days. The Survival (L 1210 leukemia; [12]) was 95, the “Mean survival” value (L 1210 leukemia; 8 × 7.5 mg/kg i.p. daily) was 19.5 days and the “toxicity mark in Survival column” value (L 1210 leukemia; 8 × 7.5 mg/kg i.p. daily) was “tox”. The Survival (L 1210 leukemia; 8 × 7.5 mg/kg i.p. daily, tox) was 56, the “Mean survival” value (L 1210 leukemia; [13]) was 21.7 days and the “toxicity mark in Survival column” value (L 1210 leukemia; [13]) was “tox”. For the same compound, the Survival (L 1210 leukemia; 8 × 10.0 mg/kg i.p. 48 hr interval, tox) was 60, the “Mean survival” value (L 1210 leukemia; [14]) was 22.3 days and the Survival (L 1210 leukemia; [14]) was 145. The “Mean survival” value (L 1210 leukemia; [15]) was 23.6 days, the Survival (L 1210 leukemia; [15]) was 136 and the “potency of small daily doses vs high doses twice weekly” value (L 1210 leukemia; BDF1 mice) was “equally potent”. For the same compound, the “sensitivity of L-1210 leukemia to the treatment” value (L 1210 leukemia; BDF1 mice) was “sensitive to the treatment”, the “extension of life span” value (L 1210 leukemia; L-1210 lymphoid leukemia, about) was 150-250% and the Survival (Novikoff; [16]) was 196. The Tumor free (Novikoff; [16]) was 1/6, the Survival (Novikoff; 6 × 2.0 mg/kg i.p. daily) was 166 and the Tumor free (Novikoff; 6 × 2.0 mg/kg i.p. daily) was 0/6.

From US4279915A, “Method of treatment using new leurosine derivatives” (priority 1973, dated 1981)
